Tests used:
[1] = system: primary rat neuronal/glial cultures exposed to NMDA; test: NMDA-induced LDH release in primary neuronal-glial cultures; assay type: cell-based
Procedure: (§1) Primary neuronal-glial cultures were prepared from fetal Sprague-Dawley rat brains at 18 days of gestation as previously described (Pearlstein et al., 1998). Brains were harvested from 10-15 pups and dissected to separate cortex from meninges and subcortical structures using anatomical landmarks. Cortices were pooled and minced into 2 mm^3 pieces in a buffered salt solution supplemented with 20 mM HEPES buffer, pH 7.4, containing 0.25% trypsin. The tissue was incubated for 20 minutes at 37° C. in a 5% CO2/95% room air atmosphere, and washed twice with ice-cold, glutamine-free minimum essential medium (MEM; Life Technologies) containing 15 mM glucose, 5% fetal bovine serum (GIBCO), 5% horse serum (GIBCO), and 1% DNase-I (Sigma Chemical Co., St. Louis, Mo., USA). Tissue pieces were dissociated by trituration through a fire-polished 9-inch Pasteur pipette (I.D.=0.7 mm). The resultant suspension was centrifuged at 50×g for 10 min, the supernatant discarded, and the pellet resuspended in growth medium (MEM supplemented with 15 mM glucose, 5% fetal bovine serum, and 5% horse serum). The dissociated cells were plated to achieve a confluent monolayer using 4×10^5 cells per well in poly-D-lysine coated, 24-well culture plates (Falcon 3047; Becton Dickinson Co., Lincoln Park, N.J., USA). Cultures were maintained undisturbed at 37° C. in a humidified 5% CO2/95% room air atmosphere for 13-16 days prior to use.
Mature cultures (13-16 days in vitro) were washed with Mg^2+-free buffered salt solution (BSS) containing 20 mM HEPES buffer (pH7.4) and 1.8 mM CaCl2, prior to the addition of NMDA. Following NMDA exposure, cultures were maintained for 30 minutes at 37° C. in a 5% CO2/95% air atmosphere. The medium containing NMDA was then removed and replaced with MEM supplemented with 20 mM glucose. The cultures were returned to the incubator for 24 h. In all experiments, cellular damage was assessed at 24 h after exposure to NMDA by measurement of the activity of lactate dehydrogenase (LDH) released into the medium as described below. The non-competitive NMDA receptor antagonist, MK-801 (Tocris Cookson Ins., St. Louis, Mo.) at a concentration of 10 μM was used as a positive control. Preliminary dose-response studies were performed to determine the concentration of NMDA (100 μM) required to effect a near-maximal LDH release (ED90) as used in the present study.
The effect of human recombinant apoE (Panverra, Madison, Wis.) on 100 μM NMDA-induced LDH release was assessed and the dose-response curve was obtained (apoE: 0.1-10 μM final concentration). ApoE3, the most common human isoform, was added to the cultures 30 minutes prior to and removed following NMDA exposure. The effect of apoE peptide (133-149) on NMDA (100 μM or 300 μM)-induced LDH release was next assessed and the dose-response curve was obtained in a separate set of sister cultures that were simultaneously treated under one of the following conditions: (1) various doses of peptide (0.3 μM, 1 μM, 3 μM, 6 μM, 10 μM final concentration) were added to the culture immediately prior to and removed at the end of NMDA exposure; (2) no peptide, NMDA exposure; (3) no peptide, no NMDA exposure; (4) no peptide, NMDA exposure with 10 μM MK-801 for 30 minutes. The effect of a scrambled control peptide on NMDA-induced LDH release was similarly assessed.
The effect of time of administration of apoE peptide (133-149) on NMDA-induced LDH release was assessed in a separate set of sister cultures that were simultaneously treated under one of following conditions: (1) peptide was added to the culture medium 24 h prior to and removed immediately before exposure to NMDA; (2) peptide was added immediately prior to and removed at the end of the NMDA exposure; (3) peptide was added immediately following the 30 minutes NMDA exposure; (4) no peptide, NMDA exposure; (5) no peptide, no NMDA exposure. […]

[2] = system: LPS-induced serum TNFα and IL-6 in C57-BL6 mice; test: Intravenous LPS sepsis model, serum TNFα and IL-6 by ELISA; assay type: in vivo, mouse; settings: peptide 6.6 mg/kg, LPS 375 μg/kg i.v.
Procedure: In these methods, 14-16 week old male C57-BL6 mice were injected with LPS (11.25 μg in 150 μl sterile isotonic saline, or 375 μg/kg) via the tail vein, and then immediately with vehicle (isotonic sterile saline) or ApoE (133-149) (at a dose of 200 μg, in 100 μl, or 6.6 mg/kg, prepared in isotonic saline). Serum samples were obtained in both LPS+vehicle and LPS+peptide groups (n=10 animals/group) at the following timepoints: time 0 (prior to injection), 1 hour, 3 hour and 24 hours after injection. Blood was collected by transcardial puncture, and allowed to clot for 30 minutes. Serum samples, obtained after centrifugation at 16,000 g for 5 minutes, were screened by solid phase ELISA for TNFα and IL-6. There were 20 animals per time point.

[3] = system: primary rat neuronal/glial cultures exposed to NMDA; test: NMDA-induced 45Ca uptake by primary neuronal-glial cultures; assay type: cell-based; settings: 6 μM peptide
Procedure: as §1
Cellular calcium uptake from the extracellular space was assessed using ^45CaCl2 (American Radiolabeled Chemicals, St. Louis, Mo.). After washing the cultures with Mg^2+-free BSS containing 20 mM HEPES buffer, 6 μM peptide or 10 μM MK-801 was added to each well prior to and removed at the end of 100 μM NMDA exposure. ^45Ca (0.28 μCi/ml, 0.9 μCi/well) was added to each well immediately prior to NMDA exposure. The cultures were returned to the incubator and maintained at 37° C. Twenty minutes later, the exposure medium was removed and each well was washed 3 times with ice-cold Mg^2+-free BSS containing 20 mM HEPES buffer. The cells were subsequently lysed by addition of 0.2% sodium dodecyl sulfate (SDS). An aliquot from each well was added to a liquid scintillation vial containing 10 ml Cytoscint™ (ICN, Biochemical Research Product, CA) and radioactivity was determined by scintillation counting and normalized to cell count.

[4] = system: mice with midline closed head injury; test: Murine closed head injury model (rotorod, weight, Morris Water Maze, survival); assay type: in vivo, mouse
Description: The mice received a midline closed head injury delivered by a pneumatic impactor at a speed of 6.8 m/s.

[5] = system: peritoneal macrophage; test: Intracellular calcium in Fura-2/AM loaded peritoneal macrophage (Example 4); assay type: cell-based, mouse; settings: preincubation with 100 molar excess of RAP
Procedure: Thioglycolate-elicited peritoneal macrophage were harvested from 8-week old C57-BL6 mice, and plated at a density of 4×10^3 cells on glass coverslips, loaded with 2.5 μM Fura-2/AM for thirty minutes, and washed with Hanks buffered solution containing […] calcium. After exposure to 5 nM human recombinant apoE3 or E4, intracellular calcium was measured by Zeiss digital microscopy.

[6] = system: thioglycollate-elicited peritoneal macrophages; test: [Ca2+]i in Fura-2/AM treated single macrophages, digital imaging microscopy (Example 10); assay type: cell-based, mouse; settings: 1000-fold molar excess RAP, 10 mM NiCl2, or 1 μg/ml pertussis toxin 12 h
Procedure: Macrophage Harvesting. All experiments involving animals were first approved by the Duke Institutional Animal Care and Use Committee. Pathogen-free female C57BL/6 mice and ApoE deficient mice previously backcrossed 10 times to the C57BL/6 strain were obtained from the Jackson Laboratory (Bar Harbor, Me.). Thioglycollate-elicited peritoneal macrophages were harvested by peritoneal lavage using 10 ml of ice-cold Hanks' balanced salt solution containing 10 mM HEPES and 3.5 mM NaHCO3 (HHBSS), pH 7.4. The macrophages were pelleted by centrifugation at 4° C. at ˜800×g for 10 min and resuspended in RPMI 1640 media supplemented with 25 mM HEPES, 12.5 U/ml penicillin, 6.5 mg/ml streptomycin, and 5% fetal bovine serum.
Measurement of [Ca^2+]i in apoE and peptide treated macrophage. Changes in [Ca^2+]i levels in Fura-2/AM treated single cells were quantified using digital imaging microscopy in accordance with known techniques. Macrophages were plated on glass coverslips sitting in 35 mm Petri dishes at a density of 1.5×10^5 cells/cm^2, and allowed to adhere for 2 h in a humidified 5% CO2 incubator at 37° C. The non-adherent cells were aspirated and the monolayers were washed twice with HHBSS. 4 μM Fura-2/AM was incubated with the cells for thirty min in the dark at room temperature and [Ca^2+]i was subsequently measured using a digital imaging microscope in accordance with known techniques. […] To determine if signaling resulted from ligation of the ligand to LRP, cells were preincubated with a 1000-fold molar excess of RAP or 10 mM NiCl2, both of which inhibit ligand binding to LRP, for 5 min prior to stimulation with apoE or peptide. In experiments in which the involvement of a G protein was assessed, monolayers were incubated with 1 μg/ml pertussis toxin for 12 h at 37° C. and Ca^2+ measurements were made as stated above.

Molecule	protection against NMDA (LDH release), timing ([1]; 6 μM peptide 24 hours prior to NMDA exposure)	protection against NMDA (LDH release), timing ([1]; 6 μM peptide added following NMDA exposure)	protection against NMDA (LDH release), timing ([1]; 6 μM peptide concurrent with 100 μM NMDA)	protection against NMDA-induced cell damage, truncated peptides ([1]; 6 μM peptide, 100 μM NMDA)	peptide concentration at which protection was first observed ([1]; 100 μM NMDA)	peptide concentration of maximal protection ([1]; 100 μM NMDA)	protection against NMDA toxicity (LDH release) ([1]; 300 μM NMDA)	protection against NMDA toxicity (LDH release), dose response ([1]; peptide 0.3-10 μM, 100 μM NMDA)	serum IL-6 versus LPS+vehicle ([2]; 1 and 3 hours post-injection)	serum TNFα versus LPS+vehicle ([2]; 1 hour post-injection)	NMDA-induced calcium influx compared to NMDA alone ([3]; 100 μM NMDA)	calcium influx in absence of NMDA ([3]; no NMDA)	learning to find hidden platform, Morris Water Maze ([4]; 21 days after injury, p<0.05)	weight loss after closed head injury ([4]; high dose 406 ug/kg i.v.)	rotorod latency (motor deficit) after closed head injury ([4]; high dose 406 ug/kg i.v. 30 min after injury)	acute survival, Kaplan-Meier analysis ([4]; mouse, in vivo)	duration of protective effect of single dose ([4]; p<0.05)	block of ApoE-induced intracellular calcium mobilization [5]	effect of preincubation on apoE-induced [Ca2+]i increase [6]
LRVRLAS HLRKLRKRLL (LRVRLASHLRKLRKRLL; fragment of receptor-binding domain of human ApoE; listed as Homo sapiens) [ApoE (133-149), 17-mer, ApoE positions 133-149]	modest but significant protection	no protection	robust protection	completely blocked 100 μM NMDA-induced cell death	3 μm	6 µM	failed to protect cells at any peptide concentration	robust, dose-dependent protection	significantly reduced	significantly reduced	significantly decreased calcium influx	no direct effect on calcium influx	appeared to provide protection in learning deficits	protected animals from this motor deficit (FIG. 10A), and concomitant weight loss	protected animals from this motor deficit	significant improvement in acute survival	sustained for five days following injury		
RAP: 39 kD protein that blocks the binding of all known ligands to LRP (protein, UniProt P30533 35-357, looked up) Alpha-2-macroglobulin …: YSREKNQPKPSPKRESGEEFRMEKLNQLWEKAQRLHLPPVRLAELHADLKIQERDELAWKKLKLDGLDEDGEKEARLIRNLNVILAKYGLDGKKDARQVTSNSLSGTQEDGLDDPRLEKLWHKAKTSGKFSGEELDKLWREFLHHKEKVHEYNVLLETLSRTEEIHENVISPSDLSDIKGSVLHSRHTELKEKLRSINQGLDRLRRVSHQGYSTEAEFEEPRVIDLWDLAQSANLTDKELEAFREELKHFEAKIEKHNHYQKQLEIAHEKLRHAESVGDGERVSRSREKHALLEGRTKELGYTVKKHLQDLSGRISRARHNEL																		did not block this effect	markedly attenuated the [Ca^2+]i increases

From patent publication US8093209B2, “Methods of suppressing microglial activation and systemic inflammatory responses” (Cognosci, Incorporated, priority 2002, dated 2012)
